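Interpolation was linear, between the two tested concentrations surrounding the appropriate level; five concentrations were tested over 48 hours in 96-well plates. Abbreviation: GI50, concentration required for 50% inhibition of growth. TGI is the concentration that stops growth completely.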
Experiments:
Assay in all cases: NCI-60 cell line screen, 48 h
[1] = tested on: RXF 393 renal
[2] = tested on: NCI-H23 lung
[3] = tested on: MDA-MB-435
[4] = tested on: M14 melanoma
[5] = tested on: SW-620 colon
[6] = tested on: LOX IMVI melanoma
[7] = tested on: SN12C renal
[8] = tested on: U251 CNS
[9] = tested on: SNB-19 CNS
[10] = tested on: KM12 colon
[11] = tested on: 786-0 renal
[12] = tested on: CCRF-CEM leukemia
[13] = tested on: A498 renal
[14] = tested on: RPMI-8226 leukemia
[15] = tested on: HCC-2998 colon
[16] = tested on: SK-OV-3 ovarian
[17] = tested on: HOP-62 NSCLC
[18] = tested on: UO-31 renal
[19] = tested on: DU-145 prostate
[20] = tested on: OVCAR-3 ovarian
[21] = tested on: MDA-MB-231 breast
[22] = tested on: UACC-257 melanoma
[23] = tested on: SNB-75 CNS
[24] = tested on: NCI-H522 lung
[25] = tested on: EKVX NSCLC
[26] = tested on: HS 578T breast
[27] = tested on: MALME-3M melanoma
[28] = tested on: BT-549 breast
[29] = tested on: OVCAR-5 ovarian
[30] = tested on: A549 NSCLC
[31] = tested on: CAKI-1 renal
[32] = tested on: MCF7 breast
[33] = tested on: PC-3 prostate
[34] = tested on: COLO 205 colon
[35] = tested on: NCI-H460 lung
[36] = tested on: NCI-H226 lung
[37] = tested on: SK-MEL-28 melanoma
[38] = tested on: OVCAR-4 ovarian
[39] = tested on: K-562 leukemia
[40] = tested on: OVCAR-8 ovarian
[41] = tested on: HCT-15 colon
[42] = tested on: SK-MEL-2 melanoma
[43] = tested on: NCI/ADR-RES ovarian
[44] = tested on: UACC-62 melanoma
[45] = tested on: HT29 colon
[46] = tested on: ACHN renal
[47] = tested on: T-47D breast
[48] = tested on: SF-539 CNS
[49] = tested on: SF-268 CNS
[50] = tested on: TK-10 renal
[51] = tested on: IGROV1 ovarian
[52] = tested on: MOLT-4 leukemia
[53] = tested on: HOP-92 NSCLC
[54] = tested on: HL-60(TB) leukemia
[55] = tested on: SK-MEL-5 melanoma
[56] = tested on: SF-295 CNS
[57] = tested on: HCT-116 colon

## COC(=O)c1ccc([C@H]2c3[nH]c4ccccc4c3C[C@H](C(=O)OC)N2C(=O)CCl)cc1
[1]
  GI50: 74 nM
  TGI: 723 nM
[2]
  GI50: 54.9 nM
  TGI: 375 nM
[3]
  GI50: 2740 nM
  TGI: 11100 nM
[4]
  GI50: 1940 nM
  TGI: 5110 nM
[5]
  GI50: 1490 nM
  TGI: 3340 nM
[6]
  GI50: < 10 nM
  TGI: < 10 nM
[7]
  GI50: 1260 nM
  TGI: 2890 nM
[8]
  GI50: 641 nM
  TGI: 1990 nM
[9]
  GI50: 4390 nM
  TGI: 16000 nM
[10]
  GI50: 1030 nM
  TGI: 4390 nM
[11]
  GI50: < 10 nM
  TGI: < 16.9 nM
[12]
  GI50: 22.3 nM
  TGI: 83.9 nM
[13]
  GI50: 447 nM
  TGI: 888 nM
[14]
  GI50: 40.5 nM
  TGI: 386 nM
[15]
  GI50: 1750 nM
  TGI: 3380 nM
[16]
  GI50: 1720 nM
  TGI: 3590 nM
[17]
  GI50: 997 nM
  TGI: 4440 nM
[18]
  GI50: 28.3 nM
  TGI: 108 nM
[19]
  GI50: 2230 nM
  TGI: 12300 nM
[20]
  GI50: 672 nM
  TGI: 2120 nM
[21]
  GI50: 109 nM
  TGI: 551 nM
[22]
  GI50: 3870 nM
  TGI: 14500 nM
[23]
  GI50: 334 nM
  TGI: 843 nM
[24]
  GI50: 19.7 nM
  TGI: 43.5 nM
[25]
  GI50: 820 nM
  TGI: 3400 nM
[26]
  GI50: 1480 nM
  TGI: 5980 nM
[27]
  GI50: 157 nM
  TGI: 438 nM
[28]
  GI50: 1230 nM
  TGI: 2570 nM
[29]
  GI50: 1440 nM
  TGI: 3650 nM
[30]
  GI50: 1630 nM
  TGI: 10500 nM
[31]
  GI50: 262 nM
  TGI: 2510 nM
[32]
  GI50: 1750 nM
  TGI: 4950 nM
[33]
  GI50: 845 nM
  TGI: 4300 nM
[34]
  GI50: 2330 nM
  TGI: 6140 nM
[35]
  GI50: 1630 nM
  TGI: 3590 nM
[36]
  GI50: 2210 nM
  TGI: 5940 nM
[37]
  GI50: 2350 nM
  TGI: 6920 nM
[38]
  GI50: 2500 nM
  TGI: 9870 nM
[39]
  GI50: 1970 nM
  TGI: > 28000 nM
[40]
  GI50: 1360 nM
  TGI: 7930 nM
[41]
  GI50: 1040 nM
  TGI: 2650 nM
[42]
  GI50: 2030 nM
  TGI: 4890 nM
[43]
  GI50: 74.4 nM
  TGI: 333 nM
[44]
  GI50: 752 nM
  TGI: 2210 nM
[45]
  GI50: 298 nM
  TGI: 1110 nM
[46]
  GI50: 234 nM
  TGI: 2170 nM
[47]
  GI50: 2230 nM
  TGI: 13300 nM
[48]
  GI50: 89.9 nM
  TGI: 226 nM
[49]
  GI50: 1900 nM
  TGI: 4610 nM
[50]
  GI50: 2320 nM
  TGI: 7660 nM
[51]
  GI50: 85.8 nM
  TGI: 277 nM
[52]
  GI50: 268 nM
  TGI: 857 nM
[53]
  GI50: 23 nM
  TGI: 63 nM
[54]
  GI50: 113 nM
  TGI: 301 nM
[55]
  GI50: 2300 nM
  TGI: 5930 nM
[56]
  GI50: 80.4 nM
  TGI: 216 nM
[57]
  GI50: 1470 nM
  TGI: 2980 nM

— PubChem BioAssay (NCI)
